# In paper PMC6680717, “Design, Synthesis and Biological Evaluation of Novel Coumarin-Based Hydroxamate Derivatives as Histone Deacetylase (Hdac) Inhibitors with Antitumor Activities” (Molecules, 2019):
# What was measured:
# recombinant HDAC1 = target: T1, recombinant HDAC1 (Homo sapiens, UniProt Q13547); assay: HDAC1 inhibitory assay (protease-coupled, Ac-peptide-AMC fluorescence); format: biochemical; details: for times greater potency than SAHA, HDAC1: ratio of IC50 versus SAHA; for IC50: recombinant HDAC1, n ≥ 3
# T1 construct: purchased BPS Biosciences
# Description: The HDAC1 enzyme activity in vitro was determined by the protease-coupled assay. Different concentrations of compounds were incubated with recombinant HDAC1 (BPS Biosciences, San Diego, CA, USA) at room temperature for 15 min, followed by adding trypsin, as well as Ac-peptide-AMC substrates, to initiate the reaction in a Tris-based assay buffer. […] The IC50 values were calculated by GraphPad Prism software (La Jolla, CA, USA). (for details see Supplementary Materials)
# A549 cells [1] = assay: Cell apoptosis analysis (annexin V FITC/PI, flow cytometry); details: 72 h
# Description: The cell apoptosis analysis was measured by annexin V FITC/PI assay using the Vybrant Apoptosis Assay kit (Invitrogen, Carlsbad, CA, USA). […] After staining, 400 μL of 1X annexin-binding buffer was added, mixed gently and kept on ice. The samples were measured using a BD Biosciences FACS Aria flow cytometer.
# HDAC11 = target: T2, HDAC11 (Homo sapiens, UniProt Q96DB2); assay: HDAC isoform inhibition assay, HDAC11
# T2 sequence (Q96DB2 1-347): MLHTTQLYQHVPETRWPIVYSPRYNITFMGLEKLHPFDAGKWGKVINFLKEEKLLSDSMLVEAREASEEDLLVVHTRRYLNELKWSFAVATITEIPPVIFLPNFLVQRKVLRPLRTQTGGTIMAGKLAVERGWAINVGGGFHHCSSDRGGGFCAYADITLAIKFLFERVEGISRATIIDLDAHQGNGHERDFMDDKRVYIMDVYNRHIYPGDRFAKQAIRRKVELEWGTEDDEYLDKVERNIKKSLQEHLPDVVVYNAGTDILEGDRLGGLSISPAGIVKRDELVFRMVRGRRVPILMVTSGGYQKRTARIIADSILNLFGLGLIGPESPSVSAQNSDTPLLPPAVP
# HDAC2 = HDAC2 (Homo sapiens, UniProt Q92769); assay: HDAC isoform inhibition assay, HDAC2
# HDAC5 = HDAC5 (Homo sapiens, UniProt Q9UQL6); assay: HDAC isoform inhibition assay, HDAC5
# HDAC6 = target: T3, HDAC6 (Homo sapiens, UniProt Q9UBN7); assay: HDAC isoform inhibition assay, HDAC6
# T3 sequence (Q9UBN7 1-1215): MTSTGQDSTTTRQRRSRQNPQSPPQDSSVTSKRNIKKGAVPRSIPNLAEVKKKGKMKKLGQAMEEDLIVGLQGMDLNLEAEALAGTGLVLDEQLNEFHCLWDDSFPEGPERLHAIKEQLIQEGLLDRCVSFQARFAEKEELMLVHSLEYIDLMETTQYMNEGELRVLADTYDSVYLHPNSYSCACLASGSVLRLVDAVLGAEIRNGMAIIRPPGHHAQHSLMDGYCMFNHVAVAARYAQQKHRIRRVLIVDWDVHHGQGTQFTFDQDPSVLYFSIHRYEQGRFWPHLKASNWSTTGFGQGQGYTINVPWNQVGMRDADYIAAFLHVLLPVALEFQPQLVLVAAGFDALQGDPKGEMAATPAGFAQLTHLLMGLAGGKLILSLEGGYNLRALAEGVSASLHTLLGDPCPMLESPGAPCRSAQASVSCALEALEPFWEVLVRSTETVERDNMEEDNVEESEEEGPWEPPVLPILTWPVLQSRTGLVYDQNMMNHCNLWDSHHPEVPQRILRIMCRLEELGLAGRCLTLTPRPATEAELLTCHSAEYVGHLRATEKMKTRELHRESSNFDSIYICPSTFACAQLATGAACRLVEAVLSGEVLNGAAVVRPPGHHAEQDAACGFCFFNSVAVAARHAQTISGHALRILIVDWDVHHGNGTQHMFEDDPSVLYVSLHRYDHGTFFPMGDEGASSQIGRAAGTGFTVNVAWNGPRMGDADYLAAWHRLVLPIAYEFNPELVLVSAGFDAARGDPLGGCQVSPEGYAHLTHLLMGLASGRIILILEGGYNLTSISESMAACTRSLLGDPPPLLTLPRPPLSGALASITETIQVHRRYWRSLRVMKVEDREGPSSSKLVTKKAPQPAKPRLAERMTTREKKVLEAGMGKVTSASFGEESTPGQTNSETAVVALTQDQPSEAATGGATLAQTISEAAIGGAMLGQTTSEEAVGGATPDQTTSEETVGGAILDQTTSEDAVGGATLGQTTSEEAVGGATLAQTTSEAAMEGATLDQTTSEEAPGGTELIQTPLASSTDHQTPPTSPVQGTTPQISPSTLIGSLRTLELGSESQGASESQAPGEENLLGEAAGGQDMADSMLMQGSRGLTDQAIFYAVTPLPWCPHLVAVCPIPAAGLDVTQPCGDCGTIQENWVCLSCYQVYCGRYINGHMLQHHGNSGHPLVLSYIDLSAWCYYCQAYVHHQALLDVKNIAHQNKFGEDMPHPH
# Hela cells = assay: In vitro anti-proliferation assay (MTT), Hela; format: cell-based; details: Homo sapiens, 48 h, read-out: Anti-proliferative activity IC50, Hela
# Description: (§1) The in vitro anti-proliferation assay was operated as previously described. In brief, the human cancer cell lines, A549, HeLa and HepG2, were seeded into 96-well plates at the appropriate cell densities. After incubation for 24 h, the cells were treated with various concentrations of tested compounds for 48 h. Then, the 3–(4,5–dimethyl–2-thiazolyl)–2,5–diphenyl–2–H–tetrazolium bromide (MTT) solution was added and co-incubated for another 4 h. The reactions were stopped by the addition of DMSO solution, and the samples were measured at 490 nm by a microplate spectrophotometer (Thermo Fisher Scientific, Waltham, MA USA). The IC50 was calculated using GraphPad Software. Three independent experiments were carried out in triplicate. (for details see Supplementary Materials)
# HepG2 cells = assay: In vitro anti-proliferation assay (MTT), HepG2; format: cell-based; details: Homo sapiens, 48 h, read-out: Anti-proliferative activity IC50, HepG2
# Description: as §1
# HDAC8 = target: T4, HDAC8 (Homo sapiens, UniProt Q9BY41); assay: HDAC isoform inhibition assay, HDAC8; details: for times greater potency than SAHA, HDAC8: ratio of IC50 versus SAHA
# T4 sequence (Q9BY41 1-377): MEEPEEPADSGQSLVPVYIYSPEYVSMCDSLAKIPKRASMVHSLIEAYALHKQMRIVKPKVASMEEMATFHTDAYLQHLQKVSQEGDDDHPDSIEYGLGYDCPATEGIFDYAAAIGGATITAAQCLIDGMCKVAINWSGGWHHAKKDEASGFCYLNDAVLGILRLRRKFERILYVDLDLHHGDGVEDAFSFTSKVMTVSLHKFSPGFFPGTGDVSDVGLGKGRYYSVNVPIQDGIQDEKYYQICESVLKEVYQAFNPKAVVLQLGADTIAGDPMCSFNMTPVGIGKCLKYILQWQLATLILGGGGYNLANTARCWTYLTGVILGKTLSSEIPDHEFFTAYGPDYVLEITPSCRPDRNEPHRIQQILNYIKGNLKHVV
# HDAC4 = HDAC4 (Homo sapiens, UniProt P56524); assay: HDAC isoform inhibition assay, HDAC4
# A549 cells [2] = assay: Cell cycle analysis (PI, flow cytometry); format: cell-based, human; details: 24 h, result in words
# Description: Next, we investigated whether the potent anti-proliferative activity of 10e and 11d resulted from the induction of the cell cycle arrest. […] This was evidenced by the increasing percentages of cells in the G2/M phase, accompanied by a proportionate reduction in other phases of the cell cycle.
# The cell cycle analysis was carried out by estimating the DNA contents with flow cytometry. After incubation with the indicated doses of 10e or 11d for 24 h, A549 cells were fixed in 70% ice-cold ethanol, incubated overnight at –20 °C, stained with propidium iodide (PI)/Triton X-100 containing RNaseA solution for 20 min at 37 °C, and then analyzed by FACS.
# [3] = system: acetylated histone H3 and H4; assay: Western blot of acetylated histone levels in A549 cells; details: A549 cells, 0.2, 0.5 and 1.0 μM, 48 h
# Description: The levels of acetylated histone H3 and H4 were analyzed by Western blotting assays with β–actin as the negative control. […] Briefly, human cancer cells were lysed in a lysis buffer (50 mM Tris-HCl pH 8.0, 5 mM EDTA, 100 mM NaCl, 0.5% NP-40, 1 mM PMSF), centrifuged for 10 min at 10,000 g, and the insoluble debris were discarded. Cell lysates were further analyzed with SDS-PAGE and western blotting with the indicated antibodies.
# A549 cells [4] = assay: In vitro anti-proliferation assay (MTT), A549; format: cell-based; details: Homo sapiens, 48 h, read-out: Anti-proliferative activity IC50, A549
# Description: as §1
# Chain of HDAC2 (Q92769 whole entry, canonical isoform): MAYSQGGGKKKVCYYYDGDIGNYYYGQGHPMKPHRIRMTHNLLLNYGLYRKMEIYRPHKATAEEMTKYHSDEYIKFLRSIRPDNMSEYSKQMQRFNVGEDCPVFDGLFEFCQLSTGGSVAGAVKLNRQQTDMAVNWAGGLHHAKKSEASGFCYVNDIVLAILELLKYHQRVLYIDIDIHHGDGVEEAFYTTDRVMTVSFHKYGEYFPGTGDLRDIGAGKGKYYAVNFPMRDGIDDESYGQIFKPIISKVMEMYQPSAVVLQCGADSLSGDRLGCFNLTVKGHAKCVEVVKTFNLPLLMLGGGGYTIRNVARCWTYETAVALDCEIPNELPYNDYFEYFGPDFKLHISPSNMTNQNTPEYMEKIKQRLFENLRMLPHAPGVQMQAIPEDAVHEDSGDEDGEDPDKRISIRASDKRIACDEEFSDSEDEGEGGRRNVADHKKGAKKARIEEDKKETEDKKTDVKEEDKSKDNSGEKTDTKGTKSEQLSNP
# T1 sequence (Q13547 whole entry): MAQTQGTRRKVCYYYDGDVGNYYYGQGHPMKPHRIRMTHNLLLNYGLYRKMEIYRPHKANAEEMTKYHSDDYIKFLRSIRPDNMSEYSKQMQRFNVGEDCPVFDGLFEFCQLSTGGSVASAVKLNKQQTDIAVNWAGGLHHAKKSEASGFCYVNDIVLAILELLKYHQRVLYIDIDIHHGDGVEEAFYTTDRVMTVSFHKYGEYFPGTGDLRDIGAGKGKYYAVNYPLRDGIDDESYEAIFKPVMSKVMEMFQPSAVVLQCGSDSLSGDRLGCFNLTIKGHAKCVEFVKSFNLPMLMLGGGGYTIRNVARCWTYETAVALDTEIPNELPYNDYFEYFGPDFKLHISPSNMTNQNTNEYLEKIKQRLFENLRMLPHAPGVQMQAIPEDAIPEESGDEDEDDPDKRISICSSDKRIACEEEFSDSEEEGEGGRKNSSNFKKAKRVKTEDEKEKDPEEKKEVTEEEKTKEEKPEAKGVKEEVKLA
# Chain of HDAC5 (Q9UQL6 whole entry, canonical isoform): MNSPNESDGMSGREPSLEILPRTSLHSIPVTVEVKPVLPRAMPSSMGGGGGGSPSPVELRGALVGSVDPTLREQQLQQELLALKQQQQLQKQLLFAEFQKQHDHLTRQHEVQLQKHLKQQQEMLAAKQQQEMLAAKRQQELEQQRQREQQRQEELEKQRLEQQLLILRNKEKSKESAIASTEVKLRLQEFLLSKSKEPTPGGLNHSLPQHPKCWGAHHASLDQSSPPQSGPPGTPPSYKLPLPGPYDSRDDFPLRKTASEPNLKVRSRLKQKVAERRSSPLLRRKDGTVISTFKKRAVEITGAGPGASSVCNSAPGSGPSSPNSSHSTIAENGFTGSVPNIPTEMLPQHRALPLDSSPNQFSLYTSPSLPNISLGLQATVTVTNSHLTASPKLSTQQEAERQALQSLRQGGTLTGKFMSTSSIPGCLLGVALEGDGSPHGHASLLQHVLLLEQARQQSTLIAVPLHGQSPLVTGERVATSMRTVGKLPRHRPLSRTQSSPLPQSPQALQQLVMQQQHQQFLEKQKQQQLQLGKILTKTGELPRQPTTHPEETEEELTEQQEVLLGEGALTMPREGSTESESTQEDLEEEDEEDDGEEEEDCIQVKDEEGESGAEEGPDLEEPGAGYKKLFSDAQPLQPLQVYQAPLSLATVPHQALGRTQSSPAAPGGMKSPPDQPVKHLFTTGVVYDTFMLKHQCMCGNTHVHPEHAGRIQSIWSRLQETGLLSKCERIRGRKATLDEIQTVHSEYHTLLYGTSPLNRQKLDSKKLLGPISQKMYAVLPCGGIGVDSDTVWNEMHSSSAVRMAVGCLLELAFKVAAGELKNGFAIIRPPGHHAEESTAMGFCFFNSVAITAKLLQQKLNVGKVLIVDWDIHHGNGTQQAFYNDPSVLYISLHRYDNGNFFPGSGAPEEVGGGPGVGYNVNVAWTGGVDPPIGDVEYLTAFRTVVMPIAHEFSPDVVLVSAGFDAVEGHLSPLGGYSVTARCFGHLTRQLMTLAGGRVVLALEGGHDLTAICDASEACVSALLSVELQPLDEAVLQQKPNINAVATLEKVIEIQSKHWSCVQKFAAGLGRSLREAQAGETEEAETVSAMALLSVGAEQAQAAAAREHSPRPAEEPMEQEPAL
# Chain of HDAC4 (P56524 whole entry, canonical isoform): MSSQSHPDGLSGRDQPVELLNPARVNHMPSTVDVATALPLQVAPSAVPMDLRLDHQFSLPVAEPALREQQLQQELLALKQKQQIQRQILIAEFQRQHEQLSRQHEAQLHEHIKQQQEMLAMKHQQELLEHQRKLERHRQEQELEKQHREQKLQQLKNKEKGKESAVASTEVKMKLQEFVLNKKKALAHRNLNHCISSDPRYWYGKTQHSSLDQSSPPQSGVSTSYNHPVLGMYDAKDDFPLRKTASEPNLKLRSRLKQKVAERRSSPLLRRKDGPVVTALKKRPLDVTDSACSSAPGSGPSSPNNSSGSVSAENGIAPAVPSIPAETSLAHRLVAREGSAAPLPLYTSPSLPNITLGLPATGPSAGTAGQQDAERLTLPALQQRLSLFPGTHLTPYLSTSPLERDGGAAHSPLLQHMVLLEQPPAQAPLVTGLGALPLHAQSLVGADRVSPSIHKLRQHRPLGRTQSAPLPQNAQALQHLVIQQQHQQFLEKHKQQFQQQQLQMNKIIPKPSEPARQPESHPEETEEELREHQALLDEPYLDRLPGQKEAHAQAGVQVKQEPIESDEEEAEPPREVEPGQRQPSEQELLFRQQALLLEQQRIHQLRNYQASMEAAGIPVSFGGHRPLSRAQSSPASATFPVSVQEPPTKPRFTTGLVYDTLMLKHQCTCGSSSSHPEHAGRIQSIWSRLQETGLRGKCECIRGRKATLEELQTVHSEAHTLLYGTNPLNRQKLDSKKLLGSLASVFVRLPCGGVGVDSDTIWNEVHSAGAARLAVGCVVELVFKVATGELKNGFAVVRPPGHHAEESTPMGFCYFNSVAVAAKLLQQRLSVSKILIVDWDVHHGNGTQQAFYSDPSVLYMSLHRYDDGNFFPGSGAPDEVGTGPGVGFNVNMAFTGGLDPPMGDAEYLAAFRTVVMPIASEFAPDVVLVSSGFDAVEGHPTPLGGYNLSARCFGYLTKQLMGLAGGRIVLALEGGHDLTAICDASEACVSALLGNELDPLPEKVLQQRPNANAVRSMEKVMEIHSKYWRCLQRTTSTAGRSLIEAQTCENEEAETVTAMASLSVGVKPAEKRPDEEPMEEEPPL
smiles,measurement,setting,value
"Cc1cc(=O)oc2cc(OCCCCCCCC(=O)NO)ccc12 [Compound 12b, N–hydroxy–8–((4–methyl–2–oxo–2H–chromen–7–yl)oxy)octanamide]","times greater potency than SAHA, HDAC1",recombinant HDAC1,approximately three
same,IC50,recombinant HDAC1,6.88 ± 0.85 nM
"COc1ccc2c(NCCCCCCC(=O)NO)cc(=O)oc2c1 [Compound 10d, N–hydroxy–7–((7–methoxy–2–oxo–2H–chromen–4–yl)amino)heptanamide]",IC50,recombinant HDAC1,2.51 ± 0.12 nM
"COc1ccc2c(OCCCCCCC(=O)NO)cc(=O)oc2c1 [Compound 11c, N–hydroxy–7–((7–methoxy–2–oxo–2H–chromen–4–yl)oxy)heptanamide]",IC50,recombinant HDAC1,5.61 ± 0.56 nM
"O=C(CCCCCCC(=O)Nc1ccccc1)NO [SAHA, vorinostat, reference compound]",apoptosis induced in A549 cancer cells,A549 cells [1]; 1.25 μM,27.6%
same,apoptosis induced in A549 cancer cells,A549 cells [1]; 2.5 μM,40.9%
same,apoptosis induced in A549 cancer cells,A549 cells [1]; 5 μM,61.4%
"COc1ccc2c(OCCCCCC(=O)NO)cc(=O)oc2c1 [Compound 11b, N–hydroxy–6–((7–methoxy–2–oxo–2H–chromen–4–yl)oxy)hexanamide]",IC50,recombinant HDAC1,19.4 ± 2.21 nM
"COc1ccc2c(NCCCCCC(=O)NO)cc(=O)oc2c1 [Compound 10c, N–hydroxy–6–((7–methoxy–2–oxo–2H–chromen–4–yl)amino)hexanamide]",IC50,recombinant HDAC1,6.43 ± 0.16 nM
"O=C(CCCCCNc1cc(=O)oc2ccccc12)NO [Compound 10b, N–hydroxy–6–((2–oxo–2H–chromen–4–yl)amino)hexanamide]",IC50,recombinant HDAC1,9.11 ± 0.2 nM
"O=C(CCCCCCCOc1ccc2ccc(=O)oc2c1)NO [Compound 12a, N–hydroxy–8–((2–oxo–2H–chromen–7–yl)oxy)octanamide]","times greater potency than SAHA, HDAC1",recombinant HDAC1,approximately three
same,IC50,recombinant HDAC1,8.72 ± 1.03 nM
"COc1ccc2c(OCCCCC(=O)NO)cc(=O)oc2c1 [Compound 11a, N–hydroxy–5–((7–methoxy–2–oxo–2H–chromen–4–yl)oxy)pentanamide]",IC50,recombinant HDAC1,> 100 nM
"COc1ccc2c(NCCCCCCCC(=O)NO)cc(=O)oc2c1 [Compound 10e, N–hydroxy–8–((7–methoxy–2–oxo–2H–chromen–4–yl)amino)octanamide]",IC50,HDAC11,> 1000 nM
same,IC50,HDAC2,0.68 ± 0.05 nM
same,"times greater potency than SAHA, HDAC2",HDAC2; ratio of IC50 versus SAHA,~27 times
same,IC50,HDAC5,> 1000 nM
same,apoptosis induced in A549 cancer cells,A549 cells [1]; 1.25 μM,51.9%
same,apoptosis induced in A549 cancer cells,A549 cells [1]; 2.5 μM,84.4%
same,apoptosis induced in A549 cancer cells,A549 cells [1]; 5 μM,90.3%
same,IC50,HDAC6,5.4 ± 1 nM
same,IC50,Hela cells,1310 ± 860 nM
same,IC50,recombinant HDAC1,0.24 ± 0.01 nM
same,IC50,HepG2 cells,> 10000 nM
same,IC50,HDAC8,16.9 ± 0.01 nM
same,"times greater potency than SAHA, HDAC8",HDAC8,~12 times
same,IC50,HDAC4,> 1000 nM
same,cell cycle arrest in A549 cells,A549 cells [2],significant induction of the G2/M phase cell cycle arrest in a concentration-dependent manner
same,expression of acetylated histone H3 and H4,[3],increase the expression of acetylated histone H3 and H4 in a dose-dependent manner
same,IC50,A549 cells [4],1960 ± 740 nM
"COc1ccc2c(OCCCCCCCC(=O)NO)cc(=O)oc2c1 [Compound 11d, N–hydroxy–8–((7–methoxy–2–oxo–2H–chromen–4–yl)oxy)octanamide]",IC50,HDAC11,> 1000 nM
same,IC50,HDAC2,< 0.32 nM
same,IC50,HDAC5,> 1000 nM
same,apoptosis induced in A549 cancer cells,A549 cells [1]; 1.25 μM,81.7%
same,apoptosis induced in A549 cancer cells,A549 cells [1]; 2.5 μM,87.2%
same,apoptosis induced in A549 cancer cells,A549 cells [1]; 5 μM,91.4%
same,IC50,HDAC6,5.67 ± 1.42 nM
same,IC50,Hela cells,2620 ± 1530 nM
same,IC50,HepG2 cells,7710 ± 2070 nM
same,IC50,HDAC8,1.85 ± 0.14 nM
same,"times greater potency than SAHA, HDAC8",HDAC8,~107 times
same,IC50,HDAC4,> 1000 nM
same,cell cycle arrest in A549 cells,A549 cells [2],significant induction of the G2/M phase cell cycle arrest in a concentration-dependent manner
same,expression of acetylated histone H3 and H4,[3],increase the expression of acetylated histone H3 and H4 in a dose-dependent manner
same,IC50,A549 cells [4],560 ± 280 nM
"O=C(CCNc1cc(=O)oc2ccccc12)NO [Compound 10a, N–hydroxy–3–((2–oxo–2H–chromen–4–yl)amino)propanamide]",IC50,recombinant HDAC1,> 100 nM
"COc1ccc2c(OCCCCCCCCC(=O)NO)cc(=O)oc2c1 [Compound 11e, N–hydroxy–9–((7–methoxy–2–oxo–2H–chromen–4–yl)oxy)nonanamide]",IC50,recombinant HDAC1,7.33 ± 1.01 nM
